Consider twelve compounds from ChEMBL document CHEMBL1152876, “Synthesis and evaluation of novel phosphoramidate prodrugs of 2'-methyl cytidine as inhibitors of hepatitis C virus NS5B polymerase” (Bioorg Med Chem Lett, 2009).

The subject of data set [1] is Hepatitis C virus. Nature of the data set: Antiviral activity against HCV infected in human hepatoma cells by replicon assay. It is filed as functional, Hepacivirus hominis. In general terms: In antiviral work, replicon cells carry a viral genome segment that copies itself.
In data set [2] the test system is Rattus norvegicus. Nature of the data set: Metabolic stability in rat liver assessed as nucleoside triphosphate formation at 30 umol/kg, po after 6 hrs. The conditions noted are these: in vivo.
For data set [3], the system named is Hepatocyte. Kind of data set: Metabolic stability in human hepatocyte assessed as nucleoside triphosphate at 10 uM level after 2 hrs. The conditions noted are these: hepatocytes.
Data set [4] has as its system Hepatocyte. Kind of data set: Metabolic stability in rat hepatocyte assessed as nucleoside triphosphate at 10 uM level after 2 hrs. The following applies: hepatocytes.

Structures are written as SMILES. Where only a bound is given, the exact number is not on record here.

With `CC(C)C(=O)O[C@H]1CCN(P(=O)(OC[C@H]2O[C@@H](n3ccc(N)nc3=O)[C@](C)(O)[C@@H]2O)Oc2ccccc2)C1` (some centres not stated), the Activity in data set [1] is less than 20000 nM.

In data set [1], `CCCC(CCC)C(=O)OCCNP(=O)(OC[C@H]1O[C@@H](n2ccc(N)nc2=O)[C@](C)(O)[C@@H]1O)Oc1ccccc1` (stereo in doubt; 10a) [2-((((2R,3R,4R,5R)-5-(4-AMINO-2-OXOPYRIMIDIN-1(2H)-YL)-3,4-DIHYDROXY-4-METHYLTETRAHYDROFURAN-2-YL)METHOXY)(PHENOXY)PHOSPHORYLAMINO)ETHYL 2-PROPYLPENTANOATE (DIASTEREOMERIC  MIX)] yielded an Activity of 450 nM. Still for that read-out and setting: next, `CC(C)C(=O)OCC(Cc1ccccc1)NP(=O)(OC[C@H]1O[C@@H](n2ccc(N)nc2=O)[C@](C)(O)[C@@H]1O)Oc1ccccc1` (some centres not stated): 921 nM; `CC(C)(C)C(=O)OCCNP(=O)(OC[C@H]1O[C@@H](n2ccc(N)nc2=O)[C@](C)(O)[C@@H]1O)Oc1ccccc1` (some centres not stated): 226 nM. Regarding `CCCC(CCC)C(=O)OCCNP(=O)(OC[C@H]1O[C@@H](n2ccc(N)nc2=O)[C@](C)(O)[C@@H]1O)Oc1ccccc1` (stereo in doubt; 10b) [2-((((2R,3R,4R,5R)-5-(4-AMINO-2-OXOPYRIMIDIN-1(2H)-YL)-3,4-DIHYDROXY-4-METHYLTETRAHYDROFURAN-2-YL)METHOXY)(PHENOXY)PHOSPHORYLAMINO)ETHYL 2-PROPYLPENTANOATE (DIASTEREOMERIC  MIX)], in data set [2], the Stability was 0.2 nmol/g. The same compound returned an Activity in data set [1] of 240 nM. Compound `C[C@@]1(O)[C@H](O)[C@@H](COP(=O)(NCCOC(=O)C2CCCCCC2)Oc2ccccc2)O[C@H]1n1ccc(N)nc1=O` (some centres not stated) showed an Activity in data set [1] of 1160 nM. Take `CCC(CC)C(=O)OCCNP(=O)(OC[C@H]1O[C@@H](n2ccc(N)nc2=O)[C@](C)(O)[C@@H]1O)Oc1ccccc1` (stereo in doubt; 9) [DIASTEREOMERIC MIX]: in data set [1], the Activity is 2830 nM. Still for that read-out and setting: to `CCC(CC)C(=O)OCCNP(=O)(OC[C@H]1O[C@@H](n2ccc(N)nc2=O)[C@](C)(O)[C@@H]1O)Oc1ccccc1` (stereo in doubt; 9b) [DIASTEREOMERIC MIX] belongs 625 nM. The same measure, in the same setting: to `CC(C)CC(COC(=O)C(C)(C)C)NP(=O)(OC[C@H]1O[C@@H](n2ccc(N)nc2=O)[C@](C)(O)[C@@H]1O)Oc1ccccc1` (some centres not stated) belongs 1840 nM; to `CC(CNP(=O)(OC[C@H]1O[C@@H](n2ccc(N)nc2=O)[C@](C)(O)[C@@H]1O)Oc1ccccc1)OC(=O)C(C)C` (some centres not stated), 585 nM. Regarding `CC(C)[C@H](N)C(=O)O[C@@H]1[C@@H](CO)O[C@@H](n2ccc(N)nc2=O)[C@]1(C)O` [VALOPICITABINE], the Stability in data set [3] was 17 µM; in data set [2], 0.2 nmol/g; in data set [4] it was less than 14 µM. This compound also gave an Activity in data set [1] of 7600 nM. For `C[C@@]1(O)[C@H](O)[C@@H](COP(=O)(NCCOC(=O)c2ccccc2)Oc2ccccc2)O[C@H]1n1ccc(N)nc1=O` (some centres not stated), the Stability in data set [2] turned out to be 0.3 nmol/g. Moreover, the Activity in data set [1] is reported as 1960 nM.
